Measurements from patent publication US20230085307A1, “PYRIDAZINONE COMPOUND AND HERBICIDE” (NISSAN CHEMICAL CORPORATION, priority 2019, published 2023).

What was measured:
velvetleaf [1] = test: Test Example 4: herbicidal effect by soil treatment (Table 19, symbol M); type: in vivo, velvetleaf (Abutilon theophrasti); settings: amount of applied herbicide 320 g/ha
Outline: (§1)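 Pre-emergence style soil spray: seeds under ~1.5 cm sterilized diluvial soil received a uniform coat of emulsion diluted to the predetermined herbicide amount. Greenhouse 25–30° C; readout at week three on previously defined criteria.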

green foxtail [2] = test: Test Example 4: herbicidal effect by soil treatment (Table 19, symbol G); type: in vivo, green foxtail (Setaria viridis); settings: amount of applied herbicide 320 g/ha
Outline: as §1

barnyard grass [3] = test: Test Example 3: herbicidal effect by foliage application, Wagner pot (Table 18, symbol H); type: in vivo, barnyard grass (Echinochloa crus-galli); settings: amount of applied herbicide 320 g/ha
Outline: (§2)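 Plants were sown in alluvial soil held under 0.1–0.5 cm standing water and grown 14 days in a greenhouse at 25–30 °C. An emulsifiable formulation, water-diluted to the set dose, was then sprayed onto the foliage, and effects were scored three weeks later using previously defined criteria.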

Chinese sprangletop = test: Test Example 3: herbicidal effect by foliage application, Wagner pot (Table 18, symbol D); type: in vivo, chinese sprangletop (Leptochloa chinensis); settings: amount of applied herbicide 320 g/ha
Outline: as §2

chickweed [4] = test: Test Example 4: herbicidal effect by soil treatment (Table 19, symbol P); type: in vivo, common chickweed (Stellaria media); settings: amount of applied herbicide 320 g/ha
Outline: as §1

Italian ryegrass [5] = test: Test Example 4: herbicidal effect by soil treatment (Table 19, symbol K); type: in vivo, Italian ryegrass (Lolium multiflorum); settings: amount of applied herbicide 320 g/ha
Outline: as §1

wild oat [6] = test: Test Example 4: herbicidal effect by soil treatment (Table 19, symbol I); type: in vivo, wild oat (Avena fatua); settings: amount of applied herbicide 320 g/ha
Outline: as §1

blackgrass [7] = test: Test Example 4: herbicidal effect by soil treatment (Table 19, symbol J); type: in vivo, blackgrass (Alopecurus myosuroides); settings: amount of applied herbicide 320 g/ha
Outline: as §1

oval-leafed pondweed = test: Test Example 1: herbicidal activity, application before weed generation under submerged conditions (Table 16, symbol C); type: in vivo, oval-leafed pondweed (Monochoria vaginalis); settings: 320 g/ha applied herbicide
Outline: (§3)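 Emulsion formulation, water-diluted to set dose, was put onto the flooded surface (4 cm depth, alluvial soil) the same day weeds were sown and 2.5-leaf rice transplanted. After 3 weeks at 25-30 °C under glass, each species was rated 0 (≤5% kill) to 5 (≥90% kill).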

lambsquarters [8] = test: Test Example 5: herbicidal effect by foliage application, plastic box (Table 20, symbol O); type: in vivo, lambsquarters (Chenopodium album); settings: foliage application, 320 g/ha, evaluated three weeks after application
Outline: (§4)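 Plants were sown into sterilized diluvial soil under about 1.5 cm cover and kept in a greenhouse at 25° C. to 30° C. Fourteen days on, foliage received an even spray of the diluted emulsion. Herbicidal or crop effect was judged three weeks afterwards.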

velvetleaf [9] = test: Test Example 5: herbicidal effect by foliage application, plastic box (Table 20, symbol M); type: in vivo, velvetleaf (Abutilon theophrasti); settings: foliage application, 320 g/ha, evaluated three weeks after application
Outline: as §4

redroot pigweed [10] = test: Test Example 4: herbicidal effect by soil treatment (Table 19, symbol N); type: in vivo, redroot pigweed (Amaranthus retroflexus); settings: amount of applied herbicide 320 g/ha
Outline: as §1

late watergrass = test: Test Example 1: herbicidal activity, application before weed generation under submerged conditions (Table 16, symbol A); type: in vivo, late watergrass (Echinochloa oryzicola); settings: 320 g/ha applied herbicide
Outline: as §3

chickweed [11] = test: Test Example 5: herbicidal effect by foliage application, plastic box (Table 20, symbol P); type: in vivo, common chickweed (Stellaria media); settings: foliage application, 320 g/ha, evaluated three weeks after application
Outline: as §4

southern crabgrass [12] = test: Test Example 4: herbicidal effect by soil treatment (Table 19, symbol F); type: in vivo, southern crabgrass (Digitaria ciliaris); settings: amount of applied herbicide 320 g/ha
Outline: as §1

rice flat sedge = test: Test Example 3: herbicidal effect by foliage application, Wagner pot (Table 18, symbol E); type: in vivo, rice flat sedge (Cyperus iria); settings: amount of applied herbicide 320 g/ha
Outline: as §2

wild oat [13] = test: Test Example 5: herbicidal effect by foliage application, plastic box (Table 20, symbol I); type: in vivo, wild oat (Avena fatua); settings: foliage application, 320 g/ha, evaluated three weeks after application
Outline: as §4

blackgrass [14] = test: Test Example 5: herbicidal effect by foliage application, plastic box (Table 20, symbol J); type: in vivo, blackgrass (Alopecurus myosuroides); settings: foliage application, 320 g/ha, evaluated three weeks after application
Outline: as §4

lambsquarters [15] = test: Test Example 4: herbicidal effect by soil treatment (Table 19, symbol O); type: in vivo, lambsquarters (Chenopodium album); settings: amount of applied herbicide 320 g/ha
Outline: as §1

Japanese bulrush = test: Test Example 1: herbicidal activity, application before weed generation under submerged conditions (Table 16, symbol B); type: in vivo, Japanese bulrush (Schoenoplectus juncoides); settings: 320 g/ha applied herbicide
Outline: as §3

persian speedwell [16] = test: Test Example 4: herbicidal effect by soil treatment (Table 19, symbol R); type: in vivo, Persian speedwell (Veronica persica); settings: amount of applied herbicide 320 g/ha
Outline: as §1

Italian ryegrass [17] = test: Test Example 5: herbicidal effect by foliage application, plastic box (Table 20, symbol K); type: in vivo, Italian ryegrass (Lolium multiflorum); settings: foliage application, 320 g/ha, evaluated three weeks after application
Outline: as §4

barnyard grass [18] = test: Test Example 5: herbicidal effect by foliage application, plastic box (Table 20, symbol H); type: in vivo, barnyard grass (Echinochloa crus-galli); settings: foliage application, 320 g/ha, evaluated three weeks after application
Outline: as §4

green foxtail [19] = test: Test Example 5: herbicidal effect by foliage application, plastic box (Table 20, symbol G); type: in vivo, green foxtail (Setaria viridis); settings: foliage application, 320 g/ha, evaluated three weeks after application
Outline: as §4

windgrass [20] = test: Test Example 4: herbicidal effect by soil treatment (Table 19, symbol L); type: in vivo, windgrass (Apera spica-venti); settings: amount of applied herbicide 320 g/ha
Outline: as §1

barnyard grass [21] = test: Test Example 4: herbicidal effect by soil treatment (Table 19, symbol H); type: in vivo, barnyard grass (Echinochloa crus-galli); settings: amount of applied herbicide 320 g/ha
Outline: as §1

redroot pigweed [22] = test: Test Example 5: herbicidal effect by foliage application, plastic box (Table 20, symbol N); type: in vivo, redroot pigweed (Amaranthus retroflexus); settings: foliage application, 320 g/ha, evaluated three weeks after application
Outline: as §4

windgrass [23] = test: Test Example 5: herbicidal effect by foliage application, plastic box (Table 20, symbol L); type: in vivo, windgrass (Apera spica-venti); settings: foliage application, 320 g/ha, evaluated three weeks after application
Outline: as §4

southern crabgrass [24] = test: Test Example 5: herbicidal effect by foliage application, plastic box (Table 20, symbol F); type: in vivo, southern crabgrass (Digitaria ciliaris); settings: foliage application, 320 g/ha, evaluated three weeks after application
Outline: as §4

persian speedwell [25] = test: Test Example 5: herbicidal effect by foliage application, plastic box (Table 20, symbol R); type: in vivo, Persian speedwell (Veronica persica); settings: foliage application, 320 g/ha, evaluated three weeks after application
Outline: as §4

Row | Structure (SMILES) | M: velvetleaf, herbicidal effect rating (velvetleaf [1]) | G: green foxtail, herbicidal effect rating (green foxtail [2]) | herbicidal effect on H: barnyard grass (barnyard grass [3]) | herbicidal effect on D: Chinese sprangletop (Chinese sprangletop) | P: chickweed, herbicidal effect rating (chickweed [4]) | K: Italian ryegrass, herbicidal effect rating (Italian ryegrass [5]) | I: wild oat, herbicidal effect rating (wild oat [6]) | J: blackgrass, herbicidal effect rating (blackgrass [7]) | Herbicidal effect on C: oval-leafed pondweed (grade 0-5) (oval-leafed pondweed) | herbicidal effect on O: lambsquarters (lambsquarters [8]) | herbicidal effect on M: velvetleaf (velvetleaf [9]) | N: redroot pigweed, herbicidal effect rating (redroot pigweed [10]) | Herbicidal effect on A: late watergrass (grade 0-5) (late watergrass) | herbicidal effect on P: chickweed (chickweed [11]) | F: southern crabgrass, herbicidal effect rating (southern crabgrass [12]) | herbicidal effect on E: rice flat sedge (rice flat sedge) | herbicidal effect on I: wild oat (wild oat [13]) | herbicidal effect on J: blackgrass (blackgrass [14]) | O: lambsquarters, herbicidal effect rating (lambsquarters [15]) | Herbicidal effect on B: Japanese bulrush (grade 0-5) (Japanese bulrush) | other results
1 | CCCCOc1ccc(-c2sc3ccc(Cl)cc3c2-c2c(O)c(C)nn(C)c2=O)cc1 [2-109] | 1 (Herbicidal rate of 5% or more and less than 20%) | 0 (Herbicidal rate of 5% or less (almost no effect)) | 4 (Herbicidal rate of 70% or more and less than 90%) | 2 (Herbicidal rate of 20% or more and less than 40%) | 0 (Herbicidal rate of 5% or less (almost no effect)) | 0 (Herbicidal rate of 5% or less (almost no effect)) | 0 (Herbicidal rate of 5% or less (almost no effect)) | 0 (Herbicidal rate of 5% or less (almost no effect)) | 0 (Herbicidal rate of 5% or less (almost no effect)) | 4 (Herbicidal rate of 70% or more and less than 90%) | 4 (Herbicidal rate of 70% or more and less than 90%) | 4 (Herbicidal rate of 70% or more and less than 90%) | 0 (Herbicidal rate of 5% or less (almost no effect)) | 4 (Herbicidal rate of 70% or more and less than 90%) | 0 (Herbicidal rate of 5% or less (almost no effect)) | 2 (Herbicidal rate of 20% or more and less than 40%) | 0 (Herbicidal rate of 5% or less (almost no effect)) | 0 (Herbicidal rate of 5% or less (almost no effect)) | 2 (Herbicidal rate of 20% or more and less than 40%) | 3 (Herbicidal rate of 40% or more and less than 70%) | R: persian speedwell, herbicidal effect rating (persian speedwell [16]): 3 (Herbicidal rate of 40% or more and less than 70%); herbicidal effect on K: Italian ryegrass (Italian ryegrass [17]): 0 (Herbicidal rate of 5% or less (almost no effect)); herbicidal effect on H: barnyard grass (barnyard grass [18]): 4 (Herbicidal rate of 70% or more and less than 90%); herbicidal effect on G: green foxtail (green foxtail [19]): 1 (Herbicidal rate of 5% or more and less than 20%); L: windgrass, herbicidal effect rating (windgrass [20]): 0 (Herbicidal rate of 5% or less (almost no effect)); H: barnyard grass, herbicidal effect rating (barnyard grass [21]): 0 (Herbicidal rate of 5% or less (almost no effect)); herbicidal effect on N: redroot pigweed (redroot pigweed [22]): 5 (Herbicidal rate of 90% or more (almost completely withered)); herbicidal effect on L: windgrass (windgrass [23]): 0 (Herbicidal rate of 5% or less (almost no effect)); herbicidal effect on F: southern crabgrass (southern crabgrass [24]): 0 (Herbicidal rate of 5% or less (almost no effect)); herbicidal effect on R: persian speedwell (persian speedwell [25]): 5 (Herbicidal rate of 90% or more (almost completely withered))
2 | COc1ccccc1-c1sc2ccc(I)cc2c1-c1c(O)c(C)nn(C)c1=O [2-130] | 0 (Herbicidal rate of 5% or less (almost no effect)) | 0 (Herbicidal rate of 5% or less (almost no effect)) | 3 (Herbicidal rate of 40% or more and less than 70%) | 0 (Herbicidal rate of 5% or less (almost no effect)) | 0 (Herbicidal rate of 5% or less (almost no effect)) | 0 (Herbicidal rate of 5% or less (almost no effect)) | 0 (Herbicidal rate of 5% or less (almost no effect)) | 0 (Herbicidal rate of 5% or less (almost no effect)) | 0 (Herbicidal rate of 5% or less (almost no effect)) | 2 (Herbicidal rate of 20% or more and less than 40%) | 3 (Herbicidal rate of 40% or more and less than 70%) | 2 (Herbicidal rate of 20% or more and less than 40%) | 0 (Herbicidal rate of 5% or less (almost no effect)) | 5 (Herbicidal rate of 90% or more (almost completely withered)) | 0 (Herbicidal rate of 5% or less (almost no effect)) | 4 (Herbicidal rate of 70% or more and less than 90%) | 0 (Herbicidal rate of 5% or less (almost no effect)) | 0 (Herbicidal rate of 5% or less (almost no effect)) | 3 (Herbicidal rate of 40% or more and less than 70%) | 3 (Herbicidal rate of 40% or more and less than 70%) | R: persian speedwell, herbicidal effect rating (persian speedwell [16]): 0 (Herbicidal rate of 5% or less (almost no effect)); herbicidal effect on K: Italian ryegrass (Italian ryegrass [17]): 0 (Herbicidal rate of 5% or less (almost no effect)); herbicidal effect on H: barnyard grass (barnyard grass [18]): 0 (Herbicidal rate of 5% or less (almost no effect)); herbicidal effect on G: green foxtail (green foxtail [19]): 0 (Herbicidal rate of 5% or less (almost no effect)); L: windgrass, herbicidal effect rating (windgrass [20]): 0 (Herbicidal rate of 5% or less (almost no effect)); H: barnyard grass, herbicidal effect rating (barnyard grass [21]): 0 (Herbicidal rate of 5% or less (almost no effect)); herbicidal effect on N: redroot pigweed (redroot pigweed [22]): 5 (Herbicidal rate of 90% or more (almost completely withered)); herbicidal effect on L: windgrass (windgrass [23]): 0 (Herbicidal rate of 5% or less (almost no effect)); herbicidal effect on F: southern crabgrass (southern crabgrass [24]): 0 (Herbicidal rate of 5% or less (almost no effect)); herbicidal effect on R: persian speedwell (persian speedwell [25]): 3 (Herbicidal rate of 40% or more and less than 70%)
